From publication PMC10399917 (Journal of Molecular Cell Biology, 2023) come the findings set out here.

The structures appear in SMILES notation.

The assay addresses His-SPIKE-S2 (Severe acute respiratory syndrome coronavirus 2, UniProt P0DTC2). The class given is binding, SARS-CoV-2. The following applies: 25 µM.

For `N#C/C(=C/c1ccc(O)c(O)c1)C(=O)NCc1ccccc1` [AG-490], the “Thermal shift of His-SPIKE-S2 compared to DMSO control” value (shortened to “Thermal shift of His-SPIKE-S2”) is “did not show a change in the thermal shift curve”.

Turning to `O=C(/C=C/c1ccc(O)c(O)c1)OCCc1ccccc1` [CAPE, caffeic acid phenethyl ester], the “Thermal shift of His-SPIKE-S2” value was “did not show a change in the thermal shift curve”.

As to `CC(C)c1onc(-c2c(Cl)cccc2Cl)c1COc1ccc(/C=C/c2cccc(C(=O)O)c2)c(Cl)c1` [GW4064], the “Thermal shift of His-SPIKE-S2” value was “interfered with the assay”.

Turning to `Cc1cc2c(C(C)C)c(O)c(O)c(C=O)c2c(O)c1-c1c(C)cc2c(C(C)C)c(O)c(O)c(C=O)c2c1O` [gossypol acetate], the “Thermal shift of His-SPIKE-S2” value is reported as “showed thermal shift”.
